Assay results published in US5616573A, “Glucocorticoids” (Schering Aktiengesellschaft, priority 1993, dated 1997).
Values belong to the compound of their own block, whether it stands above or below them. *1 amine or outer side, *2 acyl side, *3 side chain or, on linkers, in order; H or OH if unused. Where a SMILES comes first, the peptide text is derived from it. [ ]: non-standard residue; d: D form. The star is where a group is joined. Methylprednisolone(17-OCOEt) = CCC(=O)O[C@]1(C(=O)CO*)CC[C@H]2[C@@H]3C[C@H](C)C4=CC(=O)C=C[C@]4(C)[C@H]3[C@@H](O)C[C@@]21C; X2 = C[C@@H]1C[C@H]2[C@@H]3C[C@H](F)C4=CC(=O)C=C[C@]4(C)[C@H]3[C@@H](O)C[C@]2(C)[C@H]1C(=O)CO*; Phthalimidoacetyl = O=C1c2ccccc2C(=O)N1CC(=O)*; Diphenylacetyl = O=C(C(c1ccccc1)c1ccccc1)*; Fmoc = O=C(OCC1c2ccccc2-c2ccccc21)*; 2Naphthoyl = O=C(c1ccc2ccccc2c1)*; X6 = O=C(CCn1c2ccccc2c2ccccc21)*; X7 = O=S(=O)(c1ccc(Cl)cc1)*; X8 = c1ccc(N(c2ccccc2)*)cc1; MeOSuc = COC(=O)CCC(=O)*; Cbz = O=C(OCc1ccccc1)*; X4 = O=C(C=Cc1ccccc1)*; Boc = CC(C)(C)OC(=O)*; Aib = CC(C)(N)C(=O)O; CO = O=C([*:1])[*:2]; CH2Cl = ClC*

Experiments:
[1] = test system: Esterases of Rat Skin; assay: Cleavage in the Homogenate of Normal Rat Skin (unspecific cleavage by esterases of rat skin); assay type: in vitro ADME; conditions: percent of hydrolysis rate of 6α-methylprednisolone-17-propionate-21-acetate; approximately 100 μmol/l, pH=7.4, 37° C.
Description: (§1) The homogenate of the skin of male rats (0.1 mol/l of phosphate buffer, pH=7.4) is centrifuged for 20 minutes at 10,000 g. The supernatant is adjusted in phosphate buffer to a protein concentration of 3 mg/ml. The test substances in 20 μl of ethanol are added to 1 ml of this homogenate. The final concentration of the corticoid derivatives is approximately 100 μmol/l. The incubation takes place for different periods at 37° C. At the end of incubation, the samples are extracted three times with 3 ml of chloroform. The combined extracts are evaporated to dryness under nitrogen and taken up with 100 μl of ethanol. The ethanolic solutions are mixed with the same volume of water and the saponification products are separated by HPLC (RP 18, acetonitrile/water-gradient, detection 240 nm). The relative hydrolysis rate is indicated in percent of the hydrolysis rate of the 6α-methylprednisolone-17-propionate-21-acetate.

[2] = test system: rat ear; assay: Local antiinflammatory action: modified rat ear test according to Tonelli (croton oil); assay type: in vivo; conditions: topical, * = significant (p < 0.05); for Edema [% inhibition]: ear weight, 16 hours after irritant; for Infiltration [% inhibition]: granulocytic infiltrate (myeloperoxidase and leukocyte-elastase), 16 hours
Description: The antiinflammatory activity of the corticoid-21-oligopeptide esters is performed in a modified rat ear test according to Tonelli. The modifications are based on changes of irritant solution (4% croton oil, 10% DMSO in ethanol), the type of administration (application of the solution with pipette) and the evaluation of the test 16 hours after administration of the irritant solution. At this time, both the inhibition of the edema by measuring the ear weight and the inhibition of the granulocytic infiltrate by measuring the granulocyte marker myeloperoxidase and leukocyte-elastase in the ear homogenate can be determined. The group size was 6 animals in each case.

[3] = target: T1, Leukocyte Elastase (Homo sapiens, UniProt P08246); assay: Cleavage of Glucocorticoid-21-Oligopeptide Esters by Leukocyte Elastase in the lysate of human neutrophilic granulocytes; assay type: biochemical; conditions: for Relative Hydrolysis Rate [%]: lysate of human neutrophilic granulocytes, 10^6 cells per ml, 1 hour at 37° C., Fmoc-Ala-Ala-Pro-Val-O-MPP is used as reference
T1 construct: also pure human sputum elastase (Elastin Products)
T1 sequence (P08246 30-267): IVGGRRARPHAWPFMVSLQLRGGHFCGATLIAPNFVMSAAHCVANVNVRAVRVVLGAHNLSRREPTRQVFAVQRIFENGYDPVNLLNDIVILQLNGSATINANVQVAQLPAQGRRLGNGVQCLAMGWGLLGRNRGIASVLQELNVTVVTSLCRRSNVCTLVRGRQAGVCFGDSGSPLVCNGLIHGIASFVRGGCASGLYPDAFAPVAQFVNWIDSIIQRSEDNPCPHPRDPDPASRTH
Description: as §1
Polymorphonuclear granulocytes are isolated from donor blood. The cells are lysed in a density of 10^6 cells per ml. 1 ml each of the lysate is mixed with 20 μl of ethanolic corticoid solution (5 mmol/l) After 1 hour of incubation at 37° C., the samples are extracted three times with 3 ml of chloroform and worked up as described above for HPLC analysis. The cleavage of the prodrugs according to the invention can be inhibited under these test conditions by the addition of the specific elastase inhibitor MeO-succinyl-Ala-Ala-Pro-Val-chloromethylketone to 90%. Furthermore, the compounds are also hydrolyzed by pure human sputum-elastase (elastin products).

[4] = concentration 0.003 (unit not given)
[5] = concentration 0.03 (unit not given)
[6] = concentration 0.3 (unit not given)

Compound: CCC(=O)O[C@]1(C(=O)COC(C)=O)CC[C@H]2[C@@H]3C[C@H](C)C4=CC(=O)C=C[C@]4(C)[C@H]3[C@@H](O)C[C@@]21C [6α-methylprednisolone-17-propionate-21-acetate, reference compound]
Relative Hydrolysis Rate [%] [1]: 100%
Edema [% inhibition] [2, 4]: 44%
Infiltration [% inhibition] [2, 4]: 12%
Edema [% inhibition] [2, 5]: 62%
Infiltration [% inhibition] [2, 5]: 45%
Edema [% inhibition] [2, 6]: 67%
Infiltration [% inhibition] [2, 6]: 78%

Compound: CCC(=O)O[C@]1(C(=O)COC(=O)[C@@H](NC(=O)[C@@H]2CCCN2C(=O)[C@H](C)NC(=O)[C@H](C)NC(=O)OCc2ccccc2)C(C)C)CC[C@H]2[C@@H]3C[C@H](C)C4=CC(=O)C=C[C@]4(C)[C@H]3[C@@H](O)C[C@@]21C [Example 5, N-(N-(N-(N-(Phenylmethoxycarbonyl)-L-alanyl)-L-alanyl)-L-prolyl) -L-valine [11β21-dihydroxy-3,20-dioxo-6α-methyl-17-propionyloxy-pregna-1,4-dien-21-yl] ester] (Cbz-AAPV-{Methylprednisolone(17-OCOEt)})
Relative Hydrolysis Rate [%] [3]: 160-230%

Compound: CCC(=O)O[C@]1(C(=O)COC(=O)[C@@H](NC(=O)[C@@H]2CCCN2C(=O)[C@H](C)NC(=O)[C@H](C)NC(=O)C(c2ccccc2)c2ccccc2)C(C)C)CC[C@H]2[C@@H]3C[C@H](C)C4=CC(=O)C=C[C@]4(C)[C@H]3[C@@H](O)C[C@@]21C [Example 10, N-(N-(N-(N-((Diphenylmethyl)carbonyl)-L-alanyl)-L-alanyl)-L -prolyl)-L-valine [11β,21-dihydroxy-3,20-dioxo-6α-methyl-17-propionyloxy-pregna-1,4-dien-21-yl] ester] (Diphenylacetyl-AAPV-{Methylprednisolone(17-OCOEt)})
Relative Hydrolysis Rate [%] [1]: 6%

Compound: CCC(=O)O[C@]1(C(=O)COC(=O)[C@@H](NC(=O)[C@@H]2CCCN2C(=O)[C@H](C)NC(=O)[C@H](C)NC(=O)N(c2ccccc2)c2ccccc2)C(C)C)CC[C@H]2[C@@H]3C[C@H](C)C4=CC(=O)C=C[C@]4(C)[C@H]3[C@@H](O)C[C@@]21C [Example 11, N-(N-(N-(N-(Diphenylcarbamoyl)-L-alanyl)-L-alanyl)-L-prolyl)-L-valine [11β,21-dihydroxy-3,20-dioxo-6α-methyl-17-propionyloxy-pregna-1,4-dien-21-yl] ester] ({X8-CO}-AAPV-{Methylprednisolone(17-OCOEt)})
Relative Hydrolysis Rate [%] [1]: 14%

Compound: CCC(=O)O[C@]1(C(=O)COC(=O)[C@@H](NC(=O)[C@@H]2CCCN2C(=O)[C@H](C)NC(=O)[C@H](C)NC(=O)c2ccc3ccccc3c2)C(C)C)CC[C@H]2[C@@H]3C[C@H](C)C4=CC(=O)C=C[C@]4(C)[C@H]3[C@@H](O)C[C@@]21C [Example 12, N-(N-(N-(N-(2-Naphthoyl)-L-alanyl)-L-alanyl)-L-prolyl)-L-valine [11β,21-dihydroxy-3,20-dioxo-6α-methyl-17-propionyloxy-pregna-1,4-dien-21-yl] ester] (2Naphthoyl-AAPV-{Methylprednisolone(17-OCOEt)})
Relative Hydrolysis Rate [%] [1]: 4%

Compound: CCC(=O)O[C@]1(C(=O)COC(=O)[C@@H](NC(=O)[C@@H]2CCCN2C(=O)[C@H](C)NC(=O)[C@H](C)NC(=O)C=Cc2ccccc2)C(C)C)CC[C@H]2[C@@H]3C[C@H](C)C4=CC(=O)C=C[C@]4(C)[C@H]3[C@@H](O)C[C@@]21C [Example 13] (X4-AAPV-{Methylprednisolone(17-OCOEt)})
Relative Hydrolysis Rate [%] [1]: 5%

Compound: CCC(=O)O[C@]1(C(=O)COC(=O)[C@@H](NC(=O)[C@@H]2CCCN2C(=O)[C@H](C)NC(=O)[C@H](C)NS(=O)(=O)c2ccc(Cl)cc2)C(C)C)CC[C@H]2[C@@H]3C[C@H](C)C4=CC(=O)C=C[C@]4(C)[C@H]3[C@@H](O)C[C@@]21C [Example 14, N-(N-(N-(N-(4-Chlorobenzenesulfonyl)-L-alanyl)-L-alanyl)-L -prolyl)-L-valine [11β,21-dihydroxy-3,20-dioxo-6α-methyl-17-propionyloxy-pregna-1,4-dien-21-yl] ester] (X7-AAPV-{Methylprednisolone(17-OCOEt)})
Relative Hydrolysis Rate [%] [1]: 6%

Compound: CCC(=O)O[C@]1(C(=O)COC(=O)[C@@H](NC(=O)[C@@H]2CCCN2C(=O)[C@H](C)NC(=O)[C@H](C)NC(=O)CCn2c3ccccc3c3ccccc32)C(C)C)CC[C@H]2[C@@H]3C[C@H](C)C4=CC(=O)C=C[C@]4(C)[C@H]3[C@@H](O)C[C@@]21C [Example 16, N-(N-(N-(N-(3-(Carbazol-9-yl)-propionyl)-L-alanyl)-L-alanyl)-L -prolyl)-L-valine [11β,21-dihydroxy-3,20-dioxo-6α-methyl-17-propionyloxy-pregna-1,4-dien-21-yl] ester] (X6-AAPV-{Methylprednisolone(17-OCOEt)})
Relative Hydrolysis Rate [%] [1]: 3%

Compound: CCC(=O)O[C@]1(C(=O)COC(=O)[C@@H](NC(=O)[C@@H]2CCCN2C(=O)[C@H](C)NC(=O)[C@H](C)NC(=O)CN2C(=O)c3ccccc3C2=O)C(C)C)CC[C@H]2[C@@H]3C[C@H](C)C4=CC(=O)C=C[C@]4(C)[C@H]3[C@@H](O)C[C@@]21C [Example 17, N-(N-(N-(N-(N-(Phthaloyl)-glycyl)-L-alanyl)-L-alanyl)-L-prolyl) -L-valine [11β,21-dihydroxy-3,20-dioxo-6α-methyl-17-propionyloxy-pregna-1,4-dien-21-yl] ester] (Phthalimidoacetyl-AAPV-{Methylprednisolone(17-OCOEt)})
Relative Hydrolysis Rate [%] [1]: 49%

Compound: CCC(=O)O[C@]1(C(=O)COC(=O)[C@@H](NC(=O)[C@@H]2CCCN2C(=O)[C@H](C)NC(=O)[C@H](C)NC(=O)C(C)(C)NC(=O)OCC2c3ccccc3-c3ccccc32)C(C)C)CC[C@H]2[C@@H]3C[C@H](C)C4=CC(=O)C=C[C@]4(C)[C@H]3[C@@H](O)C[C@@]21C [Example 18, N-(N-(N-(N-(N-((9H-Fluoren-9-ylmethoxy)carbonyl)-2-amino-2-methyl-propionyl)-L-alanyl)-L-alanyl)-L-prolyl)-L-valine [11β,21-dihydroxy-3,20-dioxo-6α-methyl-17-propionyloxy-pregna-1,4-dien-21-yl] ester] (Fmoc-[Aib]AAPV-{Methylprednisolone(17-OCOEt)})
Relative Hydrolysis Rate [%] [3]: 130%

Compound: CC(C)[C@H](NC(=O)[C@@H]1CCCN1C(=O)[C@H](C)NC(=O)[C@H](C)NC(=O)OC(C)(C)C)C(=O)OCC(=O)[C@H]1[C@H](C)C[C@H]2[C@@H]3C[C@H](F)C4=CC(=O)C=C[C@]4(C)[C@H]3[C@@H](O)C[C@@]21C [Example 32, N-(N-(N-(N-((1,1-Dimethyl)-ethoxycarbonyl)-L-alanyl)-L-alanyl)-L -prolyl)-L-valine [6α-fluoro-11β,21-dihydroxy-16α-methyl-3,20dioxo-pregna-1,4-dien-21-yl] ester] (Boc-AAPV-X2)
Relative Hydrolysis Rate [%] [3]: 380%

Compound: CCCCC(=O)O[C@]1(C(=O)COC(=O)[C@@H](NC(=O)[C@@H]2CCCN2C(=O)[C@H](C)NC(=O)[C@H](C)NC(=O)OC(C)(C)C)C(C)C)[C@@H](C)C[C@H]2[C@@H]3CCC4=CC(=O)C=C[C@]4(C)[C@@]3(F)[C@@H](O)C[C@@]21C [Example 38, N-(N-(N-(N-((1,1-Dimethyl)ethoxycarbonyl)-L-alanyl)-L-alanyl)-L -prolyl)-L-valine [9α-fluoro-11β,21-dihydroxy-16β-methyl-3,20-dioxo-17-valeroyloxy-pregna-1,4-dien-21-yl] ester]
Relative Hydrolysis Rate [%] [1]: 0%

Inhibition of the cleavage of the prodrugs ([3]; addition of the specific elastase inhibitor to granulocyte lysate): 90%
Compound: COC(=O)CCC(=O)N[C@@H](C)C(=O)N[C@@H](C)C(=O)N1CCC[C@H]1C(=O)N[C@H](C(=O)CCl)C(C)C [MeO-succinyl-Ala-Ala-Pro-Val-chloromethylketone, reference compound] (MeOSuc-AAPV-CH2Cl)
